ChEMBL document CHEMBL4483862, “Open-source discovery of chemical leads for next-generation chemoprotective antimalarials” (2018)

System: Plasmodium berghei
Test: Luciferase/luciferin-expressing antifolate-resistant parasites were used to infect a culture of HepG2 cells that were pre-incubated with compounds. Infected hepatocytes emit light due to the luciferase reaction. Assay results are presented as the percent inhibition of light emission compared to control. […]
Assay type: functional
Conditions: sporozoite; for IC90: read-out: LUCIFERASE INFECTION ASSAY - IC90
[1] = read-out: LUCIFERASE INFECTION ASSAY - IC50

Work on CC(C)(C)c1ccc(NC(=O)c2cnccn2)cc1 yielded an IC50 (FFLUC_HILL_SLOPE 1.15, FFLUC_R_SQUARED 0.77, PBLUC_HILL_SLOPE 0.39, PBLUC_R_SQUARED 0.583, read-out: LUCIFERASE INFECTION ASSAY - IC50) of 0.0298 µM and an IC90 of 8.29 µM.

C=C1CC2(C)C(=CC1=O)CCC1C2CCC2(C)C(O)CCC12 (centres undefined) was tested, and the IC50 (HEPG2TOX_HILL_SLOPE 3.95, HEPG2TOX_R_SQUARED 0.554, PBLUC_HILL_SLOPE 10.4, PBLUC_R_SQUARED 0.356, read-out: LUCIFERASE INFECTION ASSAY - IC50) was 4.77 µM and the IC90 was 5.89 µM.

For CC(C)c1ccc(C2C3CCc4ccccc4C3=NN2CCO)cc1 (centres undefined), the IC50 (PBLUC_HILL_SLOPE 1.49, PBLUC_R_SQUARED 0.685, read-out: LUCIFERASE INFECTION ASSAY - IC50) was 0.301 µM and the IC90 was 1.32 µM.

With O=C(O)C(CCO)Sc1nnc(Nc2ccc(Oc3ccccc3)cc2)s1 (centres undefined) the IC50 (HEPG2TOX_HILL_SLOPE 1.82, HEPG2TOX_R_SQUARED 0.816, PBLUC_HILL_SLOPE 10.1, PBLUC_R_SQUARED 0.331, read-out: LUCIFERASE INFECTION ASSAY - IC50) was 9.1 µM and the IC90 was > 10 µM.

For Cc1[nH]nc2ccnc(-c3cccc(Oc4ccccc4)c3)c12, the IC50 (PBLUC_HILL_SLOPE 4.64, PBLUC_R_SQUARED 0.273, read-out: LUCIFERASE INFECTION ASSAY - IC50) was 3.44 µM and the IC90 was 5.52 µM.

For Cc1nn(CC(=O)Nc2cccc(C(F)(F)F)c2)c(C)c1Oc1ccccc1, the IC50 [1] was 3.94 µM and the IC90 was 8.01 µM.

N#CC(C#N)=C/C=C(/Sc1ccc(F)c(Cl)c1)c1ccc(Cl)cc1 showed an IC50 (FFLUC_HILL_SLOPE 3.34, FFLUC_R_SQUARED 0.746, HEPG2TOX_HILL_SLOPE 5.06, HEPG2TOX_R_SQUARED 0.992, PBLUC_HILL_SLOPE 1.74, PBLUC_R_SQUARED 0.619, read-out: LUCIFERASE INFECTION ASSAY - IC50) of 2.17 µM and an IC90 of 7.65 µM.

In the case of Cc1ccc[n+](CC(=O)c2ccc3c(c2)Cc2ccccc2-3)c1C, the IC50 (PBLUC_HILL_SLOPE 0.83, PBLUC_R_SQUARED 0.466, read-out: LUCIFERASE INFECTION ASSAY - IC50) is reported as > 8.37 µM and the IC90 is reported as > 8.37 µM.

In the case of CN1CCCN(c2ncnc3cc(-c4ccc(Cl)cc4)sc23)CC1, the IC50 (PBLUC_HILL_SLOPE 23.2, PBLUC_R_SQUARED 0.558, read-out: LUCIFERASE INFECTION ASSAY - IC50) is reported as 9.79 µM and the IC90 is reported as > 10 µM.

With COc1cc(-c2nc3ccc(NC(=O)c4cccnc4)cn3n2)cc(OC)c1OC the IC50 (PBLUC_HILL_SLOPE 1.26, PBLUC_R_SQUARED 0.59, read-out: LUCIFERASE INFECTION ASSAY - IC50) was 6.96 µM and the IC90 was > 10 µM.

CCCCn1c(=O)[nH]c(=O)c2c1nc(-c1ccc(C)c([N+](=O)[O-])c1)n2CC was tested, and the IC50 (PBLUC_HILL_SLOPE 20.6, PBLUC_R_SQUARED 0.559, read-out: LUCIFERASE INFECTION ASSAY - IC50) was 3.35 µM and the IC90 was 3.73 µM.

Molecule COc1ccc(C(C)(O)c2nc(-c3ccccc3C)cs2)cc1 (centres undefined) has an IC50 (HEPG2TOX_HILL_SLOPE 3.12, HEPG2TOX_R_SQUARED 0.895, PBLUC_HILL_SLOPE 4.56, PBLUC_R_SQUARED 0.531, read-out: LUCIFERASE INFECTION ASSAY - IC50) of 1.88 µM and an IC90 of 3.04 µM.

For Cc1n[nH]c(Nc2cc(Cl)cc(Cl)c2)nc1=O, the IC50 [1] was > 12.2 µM and the IC90 was > 12.2 µM.

In the case of Cc1cnc(NC(=O)CSCc2cccs2)s1, the IC50 [1] is reported as > 10 µM and the IC90 is reported as > 10 µM.

With O=[N+]([O-])c1ccccc1CS(=O)(=O)c1nc2ccccc2s1 the IC50 (HEPG2TOX_HILL_SLOPE 1.54, HEPG2TOX_R_SQUARED 0.3, PBLUC_HILL_SLOPE 1.66, PBLUC_R_SQUARED 0.0862, read-out: LUCIFERASE INFECTION ASSAY - IC50) was 5.91 µM and the IC90 was > 9.87 µM.

N#Cc1ccc(NCCNc2nc3ccccc3s2)nc1 was tested, and the IC50 (HEPG2TOX_HILL_SLOPE 2.81, HEPG2TOX_R_SQUARED 0.729, PBLUC_HILL_SLOPE 4.52, PBLUC_R_SQUARED 0.618, read-out: LUCIFERASE INFECTION ASSAY - IC50) was 2.66 µM and the IC90 was 4.32 µM.

For Cc1c(C(=O)Nc2cccc(Oc3ccccc3)c2)sc(=O)n1Cc1ccncc1, the IC50 [1] was > 7.9 µM and the IC90 was > 7.9 µM.

For CCOC(=O)c1cc(N/N=C(/C(=O)Nc2cccnc2)C(=O)c2ccccc2)cc(C(=O)OCC)c1, the IC50 [1] was > 10 µM and the IC90 was > 10 µM.

COCCCn1c(Sc2ncc(Br)cc2[N+](=O)[O-])nnc1-c1ccc(C(C)(C)C)cc1 was tested, and the IC50 (PBLUC_HILL_SLOPE 13.2, PBLUC_R_SQUARED 0.0327, read-out: LUCIFERASE INFECTION ASSAY - IC50) was > 6.52 µM and the IC90 was > 6.52 µM.

For CC(=O)c1c(C)[nH]c(C(=O)Nc2ccc(C)c(S(=O)(=O)Nc3ccc(C)cc3C)c2)c1C, the IC50 (HEPG2TOX_HILL_SLOPE 7.64, HEPG2TOX_R_SQUARED 0.623, PBLUC_HILL_SLOPE 8.53, PBLUC_R_SQUARED 0.404, read-out: LUCIFERASE INFECTION ASSAY - IC50) was 9.43 µM and the IC90 was > 10 µM.

Cc1ccc(NC(=O)N2CCCN(c3nc4ccc(Cl)cc4s3)CC2)cc1 was tested, and the IC50 (HEPG2TOX_HILL_SLOPE 1.45, HEPG2TOX_R_SQUARED 0.845, PBLUC_HILL_SLOPE 2.38, PBLUC_R_SQUARED 0.538, read-out: LUCIFERASE INFECTION ASSAY - IC50) was 3.62 µM and the IC90 was > 8.23 µM.

COc1ccc(C)cc1N1CC(C(=O)Nc2nc3ccccc3[nH]2)CC1=O (centres undefined) gave an IC50 (HEPG2TOX_HILL_SLOPE 2.88, HEPG2TOX_R_SQUARED 0.929, PBLUC_HILL_SLOPE 3.77, PBLUC_R_SQUARED 0.362, read-out: LUCIFERASE INFECTION ASSAY - IC50) of 2.38 µM and an IC90 of 4.27 µM.

O=C(c1c(-c2ccccc2)c2c3n(c(CN(C(=O)C4CC4)c4ccccc4)nn13)CCCC2)C1CC1 was tested, and the IC50 (HEPG2TOX_HILL_SLOPE 2.64, HEPG2TOX_R_SQUARED 0.879, read-out: LUCIFERASE INFECTION ASSAY - IC50) was > 10 µM and the IC90 was > 10 µM.

For Cc1nn(Cc2ccccc2Cl)c2sc(C(=O)OC(C)c3nc(=O)c4ccccc4[nH]3)cc12 (centres undefined), the IC50 (PBLUC_HILL_SLOPE 18.8, PBLUC_R_SQUARED 0.168, read-out: LUCIFERASE INFECTION ASSAY - IC50) was 9.99 µM and the IC90 was > 10 µM.

In the case of Fc1ccc(-c2nc(CSc3nc(NC4CC4)c4ccccc4n3)cs2)cc1, the IC50 (PBLUC_HILL_SLOPE 8, PBLUC_R_SQUARED 0.651, read-out: LUCIFERASE INFECTION ASSAY - IC50) is reported as 3.72 µM and the IC90 is reported as 4.9 µM.

Work on CCCS(=O)(=O)/C(C#N)=C/c1ccc(-c2ccc(OC)cc2)s1 yielded an IC50 [1] of 1.09 µM and an IC90 of 2.37 µM.

CC(C)(C)c1ccc(NC(=O)c2ccc[nH]c2=S)cc1 gave an IC50 (PBLUC_HILL_SLOPE 0.943, PBLUC_R_SQUARED 0.946, read-out: LUCIFERASE INFECTION ASSAY - IC50) of 0.0638 µM and an IC90 of 0.656 µM.

Work on Cc1cc(C)n(-c2ccc(CN3c4ccc(S(N)(=O)=O)cc4CC3C)cc2)n1 (centres undefined) yielded an IC50 (HEPG2TOX_HILL_SLOPE 1.67, HEPG2TOX_R_SQUARED 0.825, PBLUC_HILL_SLOPE 15.8, PBLUC_R_SQUARED 0.537, read-out: LUCIFERASE INFECTION ASSAY - IC50) of 1.34 µM and an IC90 of 1.54 µM.

CC(C)CN(CC(C)C)CC(O)COc1ccccc1 (centres undefined) was tested, and the IC50 [1] was > 11.8 µM and the IC90 was > 11.8 µM.

Cc1ccc2nc(NC(=O)c3ccccc3C(F)(F)F)c(C(=O)NCC(C)C)n2c1 showed an IC50 (HEPG2TOX_HILL_SLOPE 8.05, HEPG2TOX_R_SQUARED 0.91, PBLUC_HILL_SLOPE 18.7, PBLUC_R_SQUARED 0.209, read-out: LUCIFERASE INFECTION ASSAY - IC50) of 6.99 µM and an IC90 of 7.86 µM.

For COc1cc2c(cc1OC)C(c1cccs1)N(Cc1cc(-c3ccco3)on1)CC2 (centres undefined), the IC50 (HEPG2TOX_HILL_SLOPE 7.23, HEPG2TOX_R_SQUARED 0.683, PBLUC_HILL_SLOPE 1.88, PBLUC_R_SQUARED 0.215, read-out: LUCIFERASE INFECTION ASSAY - IC50) was 9.72 µM and the IC90 was > 10 µM.

In the case of COc1cc(OC)c(C(=O)N2CC=C(c3c[nH]c4ccccc34)CC2)cc1OC, the IC50 [1] is reported as > 10 µM and the IC90 is reported as > 10 µM.

COc1cccc(/C=C2\Oc3cc(O)cc(C)c3C2=O)c1 was tested, and the IC50 [1] was > 11.7 µM and the IC90 was > 11.7 µM.

With C/C(=N\Nc1c(Cl)cc(Cl)cc1Cl)c1ccc(N2CCOCC2)cc1 the IC50 [1] was 4.84 µM and the IC90 was > 10 µM.

With Cc1cc(C)c(NC(=O)CN(C)C2CC(=O)N(C)C2=O)c(C)c1 (centres undefined) the IC50 (HEPG2TOX_HILL_SLOPE 0.116, HEPG2TOX_R_SQUARED 0.0867, read-out: LUCIFERASE INFECTION ASSAY - IC50) was > 10 µM and the IC90 was > 10 µM.

Work on CC(=O)NCCC(=O)N(Cc1ccccc1)c1nc2c(C(C)C)cccc2s1 yielded an IC50 (PBLUC_HILL_SLOPE 286, PBLUC_R_SQUARED 0.442, read-out: LUCIFERASE INFECTION ASSAY - IC50) of 5.98 µM and an IC90 of 6.02 µM.

Molecule COc1ccc(NC(=O)CN(C)c2nc(-c3cccnc3)nc3sc(C)c(C)c23)cc1 has an IC50 (PBLUC_HILL_SLOPE 1.86E+03, PBLUC_R_SQUARED 0.436, read-out: LUCIFERASE INFECTION ASSAY - IC50) of 3.92 µM and an IC90 of 3.92 µM.

With Cc1ccc(C(=O)NC(c2ccccc2)c2ccccc2)s1 the IC50 [1] was > 10 µM and the IC90 was > 10 µM.

In the case of Cc1sc2nc(-c3cccnc3)nc(NCCc3ccc(S(N)(=O)=O)cc3)c2c1C, the IC50 (PBLUC_HILL_SLOPE 1.71, PBLUC_R_SQUARED 0.31, read-out: LUCIFERASE INFECTION ASSAY - IC50) is reported as 7.09 µM and the IC90 is reported as > 10 µM.

For Cc1ccc(S(=O)(=O)N/N=C/c2c(C)nn(-c3ccccc3)c2C)cc1[N+](=O)[O-], the IC50 [1] was > 10 µM and the IC90 was > 10 µM.

In the case of CC(C)c1ccc(NC(=O)N2CCc3nc(NCc4cccc(Oc5ccccc5)c4)ncc3C2)cc1, the IC50 [1] is reported as > 6.69 µM and the IC90 is reported as > 6.69 µM.

For COCCn1c(C(=O)OC)c(NC(=O)c2ccco2)c2cc(NCC(C)c3ccccc3)cnc21 (centres undefined), the IC50 (PBLUC_HILL_SLOPE 27.9, PBLUC_R_SQUARED 0.298, read-out: LUCIFERASE INFECTION ASSAY - IC50) was 6.65 µM and the IC90 was > 6.93 µM.
